The source of these data is ChEMBL document CHEMBL1201861, “Genomics of Drug Sensitity in Cancer screening data, Wellcome Trust Sanger Institute”.

pIC50: −log10 of the molar value.

The first experiment has as its system Calu-1. The experiment is described as follows: SANGER: Inhibition of human Calu-1 cell growth in a cell viability assay. The format is functional, cell-based.
Settings: not given
The pIC50 is the IC50 on a negative log10 scale, so that one unit is a factor of ten. Read a low pIC50 as a large IC50. In turn, `CO[C@@H]1[C@H](N(C)C(=O)c2ccccc2)C[C@H]2O[C@]1(C)n1c3ccccc3c3c4c(c5c6ccccc6n2c5c31)C(=O)NC4` [MIDOSTAURIN] had a pIC50 of under 6.29.

The next experiment has as its system D-423MG. The experiment is described as follows: cells. The settings on record: Homo sapiens. The format is functional, cell-based.
Description: SANGER: Inhibition of human D-423MG cell growth in a cell viability assay.
The molecule `NC1(c2ccc(-c3nc4ccn5c(=O)[nH]nc5c4cc3-c3ccccc3)cc2)CCC1` [MK-2206] gave a negative logarithm of the IC50 (pIC50) of 5.62.

The molecule `NC(=O)Nc1cc(-c2cccc(F)c2)sc1C(=O)N[C@H]1CCCNC1` [AZD-7762] showed a negative-log IC50 (pIC50) of 6.48.

The test system of another experiment is D-566MG. The experiment is described as follows: cells. In kind it is functional, cell-based. The settings on record: Homo sapiens.
`NC1(c2ccc(-c3nc4ccn5c(=O)[nH]nc5c4cc3-c3ccccc3)cc2)CCC1` [MK-2206] gave a pIC50 of under 5.40.

The molecule `NC(=O)Nc1cc(-c2cccc(F)c2)sc1C(=O)N[C@H]1CCCNC1` [AZD-7762] gave a negative logarithm of the IC50 (pIC50) of 6.83.

The test system of another experiment is EPLC-272H. The experiment in a line: cells. In kind it is functional, cell-based. The settings on record: Homo sapiens.
Description: SANGER: Inhibition of human EPLC-272H cell growth in a cell viability assay.
The molecule `NC1(c2ccc(-c3nc4ccn5c(=O)[nH]nc5c4cc3-c3ccccc3)cc2)CCC1` [MK-2206] showed a pIC50 of 5.93.

In turn, `NC(=O)Nc1cc(-c2cccc(F)c2)sc1C(=O)N[C@H]1CCCNC1` [AZD-7762] showed a pIC50 of 6.66.

Another experiment relates to EW-7. The experiment is described as follows: SANGER: Inhibition of human EW-7 cell growth in a cell viability assay. In kind it is functional, cell-based.
Settings: not given
Molecule `CO[C@@H]1[C@H](N(C)C(=O)c2ccccc2)C[C@H]2O[C@]1(C)n1c3ccccc3c3c4c(c5c6ccccc6n2c5c31)C(=O)NC4` [MIDOSTAURIN] had a pIC50 of under 6.29.

For a further experiment, the system named is H-EMC-SS. The experiment in a line: cells. In kind it is functional, cell-based. The following applies: Homo sapiens.
Description: SANGER: Inhibition of human H-EMC-SS cell growth in a cell viability assay.
As to `NC1(c2ccc(-c3nc4ccn5c(=O)[nH]nc5c4cc3-c3ccccc3)cc2)CCC1` [MK-2206], the negative logarithm of the IC50 (pIC50) was 6.30.

`NC(=O)Nc1cc(-c2cccc(F)c2)sc1C(=O)N[C@H]1CCCNC1` [AZD-7762] gave a pIC50 of 6.55.

A further experiment concerns H9. The experiment is described as follows: cells. The format is functional, cell-based. The settings on record: Homo sapiens.
Description: SANGER: Inhibition of human H9 cell growth in a cell viability assay.
`NC1(c2ccc(-c3nc4ccn5c(=O)[nH]nc5c4cc3-c3ccccc3)cc2)CCC1` [MK-2206] showed a pIC50 of 6.41.

`NC(=O)Nc1cc(-c2cccc(F)c2)sc1C(=O)N[C@H]1CCCNC1` [AZD-7762] had a pIC50 of 6.91.

In another experiment the test system is IPC-298. The experiment is described as follows: SANGER: Inhibition of human IPC-298 cell growth in a cell viability assay.
Settings: not given
In kind it is functional, cell-based.
`CO[C@@H]1[C@H](N(C)C(=O)c2ccccc2)C[C@H]2O[C@]1(C)n1c3ccccc3c3c4c(c5c6ccccc6n2c5c31)C(=O)NC4` [MIDOSTAURIN] showed a pIC50 of under 6.29.

For a further experiment, the system named is KNS-62. The experiment is described as follows: cells. The format is functional, cell-based. The settings on record: Homo sapiens.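 Also: inhibition of cell growth, read out with a cell viability assay.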
Description: SANGER: Inhibition of human KNS-62 cell growth in a cell viability assay.
In turn, `NC1(c2ccc(-c3nc4ccn5c(=O)[nH]nc5c4cc3-c3ccccc3)cc2)CCC1` [MK-2206] gave a pIC50 of 5.44.

The molecule `NC(=O)Nc1cc(-c2cccc(F)c2)sc1C(=O)N[C@H]1CCCNC1` [AZD-7762] had a pIC50 of 6.25.

Another experiment has as its system MFE-296. The experiment is described as follows: SANGER: Inhibition of human MFE-296 cell growth in a cell viability assay. In kind it is functional, cell-based.
Settings: not given
`CO[C@@H]1[C@H](N(C)C(=O)c2ccccc2)C[C@H]2O[C@]1(C)n1c3ccccc3c3c4c(c5c6ccccc6n2c5c31)C(=O)NC4` [MIDOSTAURIN] had a negative-log IC50 (pIC50) of under 6.29.

The next experiment deals with NCI-H1048. The experiment is described as follows: cells. The format is functional, cell-based. The following applies: Homo sapiens.
Description: SANGER: Inhibition of human NCI-H1048 cell growth in a cell viability assay.
For `NC1(c2ccc(-c3nc4ccn5c(=O)[nH]nc5c4cc3-c3ccccc3)cc2)CCC1` [MK-2206], the pIC50 was 5.53.

`NC(=O)Nc1cc(-c2cccc(F)c2)sc1C(=O)N[C@H]1CCCNC1` [AZD-7762] showed a negative-log IC50 (pIC50) of 6.04.

The subject of the next experiment is NCI-H2029. The experiment in a line: cells. The settings on record: Homo sapiens. In kind it is functional, cell-based.
Description: SANGER: Inhibition of human NCI-H2029 cell growth in a cell viability assay.
Take `NC1(c2ccc(-c3nc4ccn5c(=O)[nH]nc5c4cc3-c3ccccc3)cc2)CCC1` [MK-2206]: the negative logarithm of the IC50 (pIC50) was under 5.40.

For the molecule `NC(=O)Nc1cc(-c2cccc(F)c2)sc1C(=O)N[C@H]1CCCNC1` [AZD-7762], the negative logarithm of the IC50 (pIC50) is under 5.70.

A further experiment has as its system OC-314. The experiment in a line: cells. In kind it is functional, cell-based. The following applies: Homo sapiens.
Description: SANGER: Inhibition of human OC-314 cell growth in a cell viability assay.
The molecule `NC1(c2ccc(-c3nc4ccn5c(=O)[nH]nc5c4cc3-c3ccccc3)cc2)CCC1` [MK-2206] gave a negative-log IC50 (pIC50) of 5.67.

In turn, `NC(=O)Nc1cc(-c2cccc(F)c2)sc1C(=O)N[C@H]1CCCNC1` [AZD-7762] showed a negative logarithm of the IC50 (pIC50) of 7.11.

The next experiment relates to RT-4. The experiment in a line: SANGER: Inhibition of human RT4 cell growth in a cell viability assay. The format is functional, cell-based.
Settings: not given
`CO[C@@H]1[C@H](N(C)C(=O)c2ccccc2)C[C@H]2O[C@]1(C)n1c3ccccc3c3c4c(c5c6ccccc6n2c5c31)C(=O)NC4` [MIDOSTAURIN]: the negative-log IC50 (pIC50) is under 6.29.

Another experiment has as its system SW 1116. The experiment in a line: cells. In kind it is functional, cell-based. The settings on record: Homo sapiens.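 Also: growth inhibition of SW1116 cells, read out with a cell viability assay.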
Description: SANGER: Inhibition of human SW1116 cell growth in a cell viability assay.
Molecule `NC1(c2ccc(-c3nc4ccn5c(=O)[nH]nc5c4cc3-c3ccccc3)cc2)CCC1` [MK-2206] had a negative-log IC50 (pIC50) of under 5.40.

`NC(=O)Nc1cc(-c2cccc(F)c2)sc1C(=O)N[C@H]1CCCNC1` [AZD-7762] gave a pIC50 of under 5.70.

The subject of the next experiment is SW900. The experiment is described as follows: cells. The format is functional, cell-based. The following applies: Homo sapiens.
Description: SANGER: Inhibition of human SW900 cell growth in a cell viability assay.
In turn, `NC(=O)Nc1cc(-c2cccc(F)c2)sc1C(=O)N[C@H]1CCCNC1` [AZD-7762] had a negative logarithm of the IC50 (pIC50) of 5.95.

The test system of another experiment is A549. The experiment is described as follows: cells. The following applies: Homo sapiens. The format is functional, cell-based.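 Also: growth inhibition of A549 cells, read out with a cell viability assay.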
Description: SANGER: Inhibition of human A549 cell growth in a cell viability assay.
`NC1(c2ccc(-c3nc4ccn5c(=O)[nH]nc5c4cc3-c3ccccc3)cc2)CCC1` [MK-2206] showed a pIC50 of under 5.40.

Molecule `NC(=O)Nc1cc(-c2cccc(F)c2)sc1C(=O)N[C@H]1CCCNC1` [AZD-7762] had a negative-log IC50 (pIC50) of 5.83.

For a further experiment, the system named is BALL-1. The experiment is described as follows: cells. The format is functional, cell-based. The settings on record: Homo sapiens.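 Also: growth inhibition of BALL-1 cells, read out with a cell viability assay.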
Description: SANGER: Inhibition of human BALL-1 cell growth in a cell viability assay.
Molecule `NC1(c2ccc(-c3nc4ccn5c(=O)[nH]nc5c4cc3-c3ccccc3)cc2)CCC1` [MK-2206] gave a pIC50 of under 5.40.

As for `NC(=O)Nc1cc(-c2cccc(F)c2)sc1C(=O)N[C@H]1CCCNC1` [AZD-7762], the negative-log IC50 (pIC50) is under 5.70.

The test system of another experiment is BT-549. The experiment is described as follows: cells. In kind it is functional, cell-based. The following applies: Homo sapiens.
Description: SANGER: Inhibition of human BT-549 cell growth in a cell viability assay.
In turn, `NC1(c2ccc(-c3nc4ccn5c(=O)[nH]nc5c4cc3-c3ccccc3)cc2)CCC1` [MK-2206] had a pIC50 of under 5.40.

`NC(=O)Nc1cc(-c2cccc(F)c2)sc1C(=O)N[C@H]1CCCNC1` [AZD-7762] had a pIC50 of 5.90.

For a further experiment, the system named is TI-73. The experiment is described as follows: cells. The settings on record: Homo sapiens. In kind it is functional, cell-based.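 Also: cell viability assay measuring how much compounds suppress growth of the cultured cell line.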
Description: SANGER: Inhibition of human TI-73 cell growth in a cell viability assay.
The molecule `NC1(c2ccc(-c3nc4ccn5c(=O)[nH]nc5c4cc3-c3ccccc3)cc2)CCC1` [MK-2206] had a negative logarithm of the IC50 (pIC50) of under 5.40.

In turn, `NC(=O)Nc1cc(-c2cccc(F)c2)sc1C(=O)N[C@H]1CCCNC1` [AZD-7762] had a negative logarithm of the IC50 (pIC50) of 6.68.

A further experiment concerns YH-13. The experiment in a line: cells. The following applies: Homo sapiens. In kind it is functional, cell-based.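 Also: cell viability readout of growth suppression in the human YH-13 cell line.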
Description: SANGER: Inhibition of human YH-13 cell growth in a cell viability assay.
Turning to `NC1(c2ccc(-c3nc4ccn5c(=O)[nH]nc5c4cc3-c3ccccc3)cc2)CCC1` [MK-2206], the negative logarithm of the IC50 (pIC50) was 5.61.

`NC(=O)Nc1cc(-c2cccc(F)c2)sc1C(=O)N[C@H]1CCCNC1` [AZD-7762] had a pIC50 of 6.80.

Another experiment relates to ZR-75-30. The experiment in a line: cells. In kind it is functional, cell-based. The following applies: Homo sapiens.
Description: SANGER: Inhibition of human ZR-75-30 cell growth in a cell viability assay.
Molecule `NC1(c2ccc(-c3nc4ccn5c(=O)[nH]nc5c4cc3-c3ccccc3)cc2)CCC1` [MK-2206] showed a pIC50 of under 5.40.

The molecule `NC(=O)Nc1cc(-c2cccc(F)c2)sc1C(=O)N[C@H]1CCCNC1` [AZD-7762] gave a negative-log IC50 (pIC50) of under 5.70.

Another experiment has as its system CHP-134. The experiment in a line: SANGER: Inhibition of human CHP-134 cell growth in a cell viability assay. The format is functional, cell-based.
Settings: not given
In turn, `NC1(c2ccc(-c3nc4ccn5c(=O)[nH]nc5c4cc3-c3ccccc3)cc2)CCC1` [MK-2206] gave a pIC50 of under 5.40.
